Experimental findings from patent publication US20060134144A1, “Mucoadhesive composition and formulation for solubilization of insoluble drugs and preparation method thereof” (priority 2002, published 2006) are described below.

SMILES strings stand for the structures.

The series in a line: Dispersion behaviour on mixing with water. Type of series: physicochemical. The following applies: mixed with water. The protocol:
The size of the emulsion particles were measured by using Malvern Zetasizer (Malvern Instruments Limited, England) after preparing the emulsion by adding 3 mL of distilled water to 2 μL of thus obtained liquid formulation. An average particle size and polydispersity were obtained by measuring values for a given formulation three times (Orr, Encyclopedia of emulsion technology, 1, 369-404, 1985). The polydispersity was obtained as the variance indicated by the logarithmic scale in the logarithmic normal distribution function. The above method in measuring the particle size and the polydispersity was used throughout the following examples.
The above composition exists as semi-solid or solid at room temperature and in a refrigerator, respectively, but as liquid at or above 40° C. Dispersion with the average particle size of 530 nm was obtained when the above composition was vortexed for 10 s in water. The absorbance at 400 nm was 2.36.
Monoolein (99.5% purity) from Nu-Chek Prep (Elysian, Minn., USA) or Myverol 18-99K (monoolein content 86.6 weight %) from Danisco A/S (Copenhagen, Denmark) were mixed with water. […] Since the cubic phase had very high viscosity and floated in water, the particle size or absorbance could not be determined.

`CCCCCCCC/C=C\CCCCCCCC(=O)OCC(O)CO` (stereo not shown) [Monoolein (99.5% purity), Monoolein]: the “dispersion behaviour in water” value was “Cubic phases were formed instead of dispersion”.
